Patent US20160333043A1, “E-Selectin Antagonists Modified By Macrocycle Formation to the Galactose” (GLYCOMIMETICS, INC., priority 2014, published 2016)
Like-named read-outs stand apart in the source and are kept apart here.

How the values were obtained:
[1] = rcm bond, Grubbs 2nd generation catalyst, 25.0 °C
E-selectin = biological target: T1, E-selectin (Homo sapiens, UniProt P16581); assay: E-selectin activity competitive binding assay (sLe^a polyacrylamide / streptavidin-HRP conjugate); settings: immobilized E-selectin/Ig chimera; concentration required to inhibit sLe^a binding by 50%; absorbance 450 nm
T1 construct: fused on or other part: Immunoglobulin (Ig) part fused on as a handle for immobilising and dimerising
T1 sequence (P16581 22-175 limits assumed): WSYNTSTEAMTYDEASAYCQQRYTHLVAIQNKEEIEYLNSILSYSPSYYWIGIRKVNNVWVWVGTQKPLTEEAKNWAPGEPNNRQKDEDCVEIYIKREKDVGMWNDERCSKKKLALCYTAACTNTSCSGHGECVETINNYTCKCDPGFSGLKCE
Description: An inhibition assay may be used to screen for antagonists of E-selectin. For example, an assay may be performed to characterize the capability of a compound described herein to inhibit (i.e., reduce, block, decrease, or prevent in a statistically or biologically significant manner) interaction of E-selectin with sLe^a or sLe^x. The inhibition assay may be a competitive binding assay, which allows the determination of IC50 values. By way of example, E-selectin/Ig chimera may be immobilized onto a matrix (e.g., a multi-well plate, which may be made from a polymer, such as polystyrene; a test tube, and the like); a composition may be added to reduce nonspecific binding (e.g., a composition comprising non-fat dried milk or bovine serum albumin or other blocking buffer routinely used by a person skilled in the art); the immobilized E-selectin may be contacted with the candidate compound in the presence of sLe^a comprising a reporter group under conditions and for a time sufficient to permit sLe^a to bind to the immobilized E-selectin; the immobilized E-selectin may be washed; and the amount of sLe^a bound to immobilized E-selectin may be detected. Variations of such steps can be readily and routinely accomplished by a person of ordinary skill in the art.
The inhibition assay to screen and characterize glycomimetic antagonists of E-selectin is a competitive binding assay, from which IC50 values may be determined. E-selectin/Ig chimera was immobilized in 96 well microtiter plates by incubation at 37° C. for 2 hours. To reduce nonspecific binding, bovine serum albumin was added to each well and incubated at room temperature for 2 hours. The plate was washed and serial dilutions of the test compounds were added to the wells in the presence of conjugates of biotinylated, sLe^a polyacrylamide with streptavidin/horseradish peroxidase and incubated for 2 hours at room temperature.
To determine the amount of sLe^a bound to immobilized E-selectin after washing, the peroxidase substrate, 3,3′,5,5′ tetramethylbenzidine (TMB) was added. After 3 minutes, the enzyme reaction was stopped by the addition of H3PO4, and the absorbance of light at a wavelength of 450 nm was determined.

CC[C@H]1CCC[C@@H](O[C@@H]2O[C@@H]3COC(c4ccccc4)O[C@@H]3[C@@H]3O[C@@H](C(=O)OCc4ccccc4)CC=CCO[C@@H]23)[C@@H]1O[C@@H]1O[C@@H](C)[C@@H](OCc2ccccc2)[C@@H](OCc2ccccc2)[C@@H]1OCc1ccccc1 (stereo partly shown)
ring closure, yield of all isomers ([1]; from C=CCO[C@H]1[C@H](O[C@@H]2CCC[C@H](CC)[C@H]2O[C@@H]2O[C@@H](C)[C@@H](OCc3ccccc3)[C@@H](OCc3ccccc3)[C@@H]2OCc2ccccc2)O[C@@H]2COC(c3ccccc3)O[C@@H]2[C@@H]1O[C@H](CC=C)C(=O)OCc1ccccc1, 16.0 h): 66%

COC(=O)C1CC=CCCO[C@H]2[C@H](O[C@@H]3CCC[C@H](C)[C@H]3O[C@@H]3O[C@@H](C)[C@@H](OCc4ccccc4)[C@@H](OCc4ccccc4)[C@@H]3OCc3ccccc3)O[C@H](COCc3ccccc3)[C@H](O)[C@@H]2O1 (stereo partly shown)
ring closure, yield of all isomers ([1]; from C=CCCO[C@H]1[C@H](O[C@@H]2CCC[C@H](C)[C@H]2O[C@@H]2O[C@@H](C)[C@@H](OCc3ccccc3)[C@@H](OCc3ccccc3)[C@@H]2OCc2ccccc2)O[C@H](COCc2ccccc2)[C@H](O)[C@@H]1OC(CC=C)C(=O)OC, DCM, 2.0 h): 82.5%

COC(=O)C1CC=CCO[C@H]2[C@H](O[C@@H]3CCC[C@H](C)[C@H]3O[C@@H]3O[C@@H](C)[C@@H](OCc4ccccc4)[C@@H](OCc4ccccc4)[C@@H]3OCc3ccccc3)O[C@H](COCc3ccccc3)[C@H](O)[C@@H]2O1 (stereo partly shown)
ring closure, yield of all isomers ([1]; from C=CCO[C@H]1[C@H](O[C@@H]2CCC[C@H](C)[C@H]2O[C@@H]2O[C@@H](C)[C@@H](OCc3ccccc3)[C@@H](OCc3ccccc3)[C@@H]2OCc2ccccc2)O[C@H](COCc2ccccc2)[C@H](O)[C@@H]1OC(CC=C)C(=O)OC, DCM, 5.25 mM, 2.0 h): 86%

CC1O[C@@H](OC2[C@H](C)CCC[C@H]2O[C@@H]2OC(CO)[C@H](O)C3O[C@@H](C(=O)O)CCCCOC32)[C@@H](O)C(O)[C@@H]1O (stereo partly shown) [Compound 18a]
IC50 (E-selectin): 15.2 µM

CC1O[C@@H](OC2[C@H](C)CCC[C@H]2O[C@@H]2OC(CO)[C@H](O)C3O[C@@H](C(=O)O)CCCOC32)[C@@H](O)C(O)[C@@H]1O (stereo partly shown) [Compound 25]
IC50 (E-selectin): 15.8 µM

CC[C@@H]1CCC[C@@H](O[C@@H]2OC(CO)[C@H](O)C3O[C@@H](C(=O)O)CCCCOC32)C1O[C@@H]1OC(C)[C@@H](O)C(O)[C@@H]1O (stereo partly shown) [Compound 39]
IC50 (E-selectin): 7.3 µM

CC[C@@H]1CCC[C@@H](O[C@@H]2OC(CO)[C@H](O)C3O[C@@H](C(=O)O)CCCOC32)C1O[C@@H]1OC(C)[C@@H](O)C(O)[C@@H]1O (stereo partly shown) [Compound 47]
IC50 (E-selectin): 3.8 µM
